Measurements taken from ChEMBL document CHEMBL1201862, “PubChem BioAssay data set” (2004).
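How tested: cells in 96-well plates exposed to compound for 48 hours at five concentrations. GI50 = concentration required for 50% inhibition of growth.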 Activity calls are given as the source filed them. Cut-off read from the data, not from the text of the source: active = GI50 up to about 1.1 µM and inactive = higher.

Legend:
Assay in all cases: NCI anticancer screen, dose series, 48 h
CAKI-1 = system: CAKI-1
MCF7 = system: MCF7
LOX IMVI = system: LOX IMVI
NCI-H522 = system: NCI-H522
SK-MEL-28 = system: SK-MEL-28
RXF 393 = system: RXF 393
SR = system: SR
NCI-H23 = system: NCI-H23
K562 = system: K562
OVCAR-3 = system: OVCAR-3
OVCAR-4 = system: OVCAR-4
ACHN = system: ACHN
SN12C = system: SN12C
SF-268 = system: SF-268
HOP-92 = system: HOP-92
HCT-15 = system: HCT-15
UO-31 = system: UO-31
COLO 205 = system: COLO 205
SF-295 = system: SF-295
EKVX = system: EKVX

SMILES	GI50 (CAKI-1)	GI50 (MCF7)	GI50 (LOX IMVI)	GI50 (NCI-H522)	GI50 (SK-MEL-28)	GI50 (RXF 393)	GI50 (SR)	GI50 (NCI-H23)	GI50 (K562)	GI50 (OVCAR-3)	GI50 (OVCAR-4)	GI50 (ACHN)	GI50 (SN12C)	GI50 (SF-268)	GI50 (HOP-92)	GI50 (HCT-15) [µM]	GI50 (UO-31)	GI50 (COLO 205)	GI50 (SF-295)	GI50 (EKVX)
COc1cccc(-c2cc(=O)c3cc(N4CCCCC4)ccc3[nH]2)c1	< 0.01 µM (active)	< 0.01 µM (active)	< 0.0177 µM (active)	< 0.0177 µM (active)	> 100 µM (inactive)	< 0.01 µM (active)	< 0.01 µM (active)	0.0204 µM (active)	< 0.01 µM (active)	< 0.01 µM (active)	1.51 µM (inactive)	< 0.0186 µM (active)	0.0332 µM (active)	0.16 µM (active)	13.1 µM (inactive)	< 0.0167	7.29 µM (inactive)	< 0.0139 µM (active)	0.0119 µM (active)	
CN(C)C(=O)OC1=CC2CCC(C1)N2C (stereo not drawn)	> 100 µM (inactive)	66.1 µM (inactive)	61.4 µM (inactive)	> 100 µM (inactive)	> 100 µM (inactive)	> 100 µM (inactive)	47 µM (inactive)	> 100 µM (inactive)	88.7 µM (inactive)	> 100 µM (inactive)	> 100 µM (inactive)	82 µM (inactive)	> 100 µM (inactive)	> 100 µM (inactive)	> 100 µM (inactive)	48.3	52.5 µM (inactive)	> 100 µM (inactive)	> 100 µM (inactive)	> 100 µM (inactive)
O=C1OC2(C(F)(F)F)Oc3ccccc3CN2C12CCCCC2 (stereo not drawn)	18.7 µM (inactive)	39.1 µM (inactive)	22.4 µM (inactive)	24.3 µM (inactive)	55.2 µM (inactive)	20.4 µM (inactive)	22.8 µM (inactive)	25.4 µM (inactive)	20.4 µM (inactive)	28.6 µM (inactive)	31.8 µM (inactive)	19.7 µM (inactive)	24.7 µM (inactive)	35.6 µM (inactive)	24.9 µM (inactive)	28.2	22.9 µM (inactive)	18.7 µM (inactive)	21.1 µM (inactive)	38.2 µM (inactive)
CC(C)(C)OC(=O)NCC(=O)N(CCc1ccc(Cl)c(Cl)c1)CCN1CCCC1	18.4 µM (inactive)	16.4 µM (inactive)	14.6 µM (inactive)	14.5 µM (inactive)	13 µM (inactive)	14.9 µM (inactive)	14.5 µM (inactive)	17.1 µM (inactive)	8.11 µM (inactive)	16.7 µM (inactive)	21.2 µM (inactive)	19.5 µM (inactive)	17.3 µM (inactive)	15.3 µM (inactive)	3.78 µM (inactive)	17.7	14.6 µM (inactive)	13.6 µM (inactive)	17.3 µM (inactive)	21.7 µM (inactive)
Cc1cc2nc3c(N)nn(CCN(C)C)c3nc2cc1C	39.3 µM (inactive)	29.2 µM (inactive)	25.9 µM (inactive)	40.1 µM (inactive)	53.7 µM (inactive)	30.4 µM (inactive)	> 100 µM (inactive)	38.2 µM (inactive)	83.4 µM (inactive)	55 µM (inactive)	40.6 µM (inactive)	28.4 µM (inactive)	36.7 µM (inactive)	38.5 µM (inactive)	38.5 µM (inactive)	36.4	29 µM (inactive)	28.1 µM (inactive)	78.7 µM (inactive)	58.7 µM (inactive)
O=c1[nH]nc(-c2ccccc2)n1/N=C/c1ccco1	> 100 µM (inactive)	0.0719 µM (active)	> 100 µM (inactive)	> 100 µM (inactive)	> 100 µM (inactive)	> 100 µM (inactive)	> 100 µM (inactive)	> 100 µM (inactive)		> 100 µM (inactive)	30.1 µM (inactive)	> 100 µM (inactive)	29.2 µM (inactive)	> 100 µM (inactive)	> 100 µM (inactive)	> 100	> 100 µM (inactive)	> 100 µM (inactive)	> 100 µM (inactive)	> 100 µM (inactive)
